Assay [1] concerns the target T1, Asf1 1-156 (Homo sapiens, UniProt Q9Y294).
T1 construct: made in house
Description: Calorimetry (ITC) of the interaction of peptides with Asf1 1-156. It counts as binding. To be noted: for affinity for Asf1 compared with peptide i5: optimized sequences of i5; for binding to Asf1 (in words): control peptide mutated on three key residues. The procedure:
FIG. 1: ITC curves of the interaction Asf1 1-156 (30 μM in A, 10 μM in B and C) with peptide i1 (A), i4 (B) and i5 (C). The peptide concentration used for this experiment is 0.5 mM for i1, and 0.16 mM for i4 and i5.
Human Asf1a and b proteins and the conserved N-terminal domain (1-156) of each of the isoforms were cloned into the vector peTM30. The unlabeled and ^15N and ^13C/^15N labeled recombinant proteins were purified according to the protocol of Mousson et al. (2004, Journal of Biomolecular NMR, 29(3): 413-414). The peptides were either produced by chemical synthesis ([…]), or cloned after gene synthesis ([…]) in the vector Gateway pDest 17 (Invitrogen), then purified according to the protocol of Mousson et al. (2005, Proc. Natl. Sci. USA, 102(17): p. 5975-5980).
All calorimetry experiments were carried out in 50 mM Tris buffer pH 7.4 at 5° C., unless otherwise indicated. Peptides were introduced in the syringe at a concentration of […] and Asf1 was added to the cuvette at a concentration of 30 μM or 10 μM. Calorimetry tests were also conducted at 25° C. or in 50 mM Tris buffer, 150 mM NaCl, pH 7.4 to obtain more detailed information on the characteristics of the interactions studied.

For assay [2], the system named is U2OS cells. Description: Cell penetration test of FITC-labelled peptides by flow cytometry. To be noted: FITC label, 1 μM, 1 hour, FIG. 5. It counts as cell-based, human. The method, then: The capacity of the peptide i42V (SEQ ID NO: 47) coupled either to the sequence TAT (peptide TAT-i42V, SEQ ID NO: 58) or to the sequence (RRP)5 (peptide RRP5-i42V, SEQ ID NO 59) was measured using these peptides coupled to an FITC label. The mean fluorescence of the cells was analyzed by flow cytometry (FIG. 5).
U2OS cells were incubated with culture medium supplemented with fluorescent peptide at a final concentration of 1 μM for 1 hour, then washed with PBS buffer and detached by addition of trypsin, washed with PBS buffer, then analyzed by flow cytometry (FACS).

In assay [3] the test system is U2OS cells. Description: Toxicity test on U2OS cells transduced with peptides in the presence of pyrene butyrate. It counts as cell-based, human. To be noted: 24 hours after transduction. The method, then: To optimize the internalization of the peptide, the transduction was performed in the presence of pyrene butyrate, according to the method proposed by Takeuchi et al. (ACS CHEMICAL BIOLOGY, 2006. 1(5): p. 299-303). […] RRP5-i1 is the peptide of SEQ ID NO: 60. RRP5-i5 is the peptide of SEQ ID NO: 66. This correlation between the affinity of the peptide for Asf1 and the induced cell toxicity was confirmed for another cell type (HeLa cells) and by using another protocol to measure cell survival, the MTT assay (FIG. 10).
To test the phenotypes induced by the peptide, a newly developed protocol for the “Cell Penetrating TAT” was used. The peptides were dissolved in PBS buffer containing […] and incubated with U2OS (or HeLa) cells for 4 minutes. Cells were then washed three times with PBS buffer, then taken up in culture medium containing fetal calf serum. Cell death was analyzed by FACS 24 to 48 hours later by propidium iodide incorporation or by an MTT assay (3-(4,5-dimethylthiazol-2-yl)-2,5-diphenyl tetrazolium bromide). (Mosmann, T. J. Immunol. Methods 65: 55-63, 1983).

In assay [4] the target is T2, Asf1-H3-H4 interaction (Homo sapiens, UniProt Q9Y294).
T2 construct: The human protein GST-Asf1 1-156 was produced; made in house
Description: Competition assay on GST column (peptide/histone competition in vitro, Western blot). It counts as binding. To be noted: peptide 0.1 mM and 1 mM, FIG. 3. The method, then: To do this, GST beads linked to Asf1 were incubated with an excess of histones H3-H4, then washed and incubated with increasing concentrations of peptide. The eluted histones were analyzed by Western blot.
The human protein GST-Asf1 1-156 was produced and then incubated with GST beads (glutathione S transferase, Sigma). For each experiment, 40 μg of recombinant Asf1 fixed to agarose beads were incubated with 400 μg of histones. After washing with 50 mM Tris buffer, pH 8, 150 mM NaCl, 1 mM EDTA, 1 mM DTT, 0.5% NP40, the beads were incubated with different concentrations of peptide (0 to 1 mM) dissolved in the same buffer.
For orientation: Immunoblotting shows a protein as a band on a membrane.

Where [5] appears, read: ITC, 50 mM Tris buffer pH 7.4 at 5° C., Asf1 1-156, read-out: Kd.

Entries after “also recorded” stand apart in the source; their conditions may differ. Like-named read-outs stand apart in the source and are kept apart here. Where no end group is shown, it is not given here.

T1 sequence (Q9Y294 1-156): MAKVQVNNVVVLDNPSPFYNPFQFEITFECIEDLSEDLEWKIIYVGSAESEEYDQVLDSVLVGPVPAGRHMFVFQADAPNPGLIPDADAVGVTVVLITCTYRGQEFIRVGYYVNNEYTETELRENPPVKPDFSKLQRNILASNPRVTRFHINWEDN
T2 sequence (Q9Y294 1-156): as above

In the case of “ASTERKWAELARRIAGAGGVTLNGFG [SEQ ID NO: 79]”, the “affinity for Asf1 compared with peptide i5” value in assay [1] is “at least as good as that of peptide i5”.

For “ASTERKWAELARRIRGAGGRTLNGFG [SEQ ID NO: 77]”, in assay [1], the “affinity for Asf1 compared with peptide i5” value is “at least as good as that of peptide i5”.

For the substance “GAMGLTAAEHAKRSTLTPKEAQLARRIRGAGGVTLNGFG [SEQ ID NO: 52]”, the Kd in assay [1] (setting [5]) came to 30 nM.

As for “GAMGRVPPAVRKLGNASTERKWAELARRIRGAGGVTLNGFG [SEQ ID NO: 65]”, the Kd in assay [1] (setting [5]) stood at 60 nM.

For the substance GAMGTIMPKDIQLARRIRG [SEQ ID NO: 70], the Kd in assay [1] (unit inferred, read-out: affinity for Asf1) worked out at 8000 nM.

“GAMGTIMPKDIQLARRIRGAGASRTLYGFG [SEQ ID NO: 39]”: in assay [1] (setting [5]), the Kd was found to be 350 nM.

With “GAMGTITPKEAQLARRIRGAGGVTLNGFG [SEQ ID NO: 47]”, the Kd in assay [1] (setting [5]) turned out to be 350 nM.

Consider “GAMGTITPKEEQLRRRIEGAGASVTLNGFG [SEQ ID NO: 46]”, for which the Kd in assay [1] (setting [5]) is 420 nM.

“GAMGTLTPKEAELARRIRGAGASRTLNGFG [SEQ ID NO: 43]”: the Kd in assay [1] (setting [5]) stood at 350 nM.

Regarding “GAMGTLTPKEAELARRIRGAGGRTLNGFG [SEQ ID NO: 42]”, in assay [1] (setting [5]), the Kd was 180 nM.

On to “GAMGTLTPKEAELARRIRGAGGVTLNGFG [SEQ ID NO: 48]”, for which the Kd in assay [1] (setting [5]) was determined as 60 nM.

With “GAMGTRTPKERRLARRIRGAGGRTLNGFG [SEQ ID NO: 56]”, the Kd in assay [1] (setting [5]) is 30 nM.

For “GRKKRRQRRRGAMGTITPKEAQLARRIRGAGGVTLNGFG [SEQ ID NO: 58]”, the “penetration into cells (mean fluorescence)” value in assay [2] is reported as “penetrate more effectively than the penetration sequences alone”.

For “RRP5-i5mut: mutated version of RRP5-i5 carrying the (RRP)5 sequence, does not bind to Asf1; negative control (RRPRRPRRPRRPRRPASTERKWAEAARRARGAGGVTLNGAGGCA)”, the “binding to Asf1 (in words)” value in assay [1] was “does not bind to Asf1”. In addition, the “toxicity (in words)” value in assay [3] is given as “no toxicity was seen”.

As to “RRPRRPRRPRRPRRPGAMGTITPKEAQLARRIRGAGGVTLNGFG [SEQ ID NO: 59]”, the “penetration into cells (mean fluorescence)” value in assay [2] is “penetrate more effectively than the penetration sequences alone”.

With “RRPRRPRRPRRPRRPGAMGTITPKEAQLARRIRGAGGVTLNGFGCA [SEQ ID NO: 50]”, in assay [1] (setting [5]), the Kd worked out at 420 nM.

As to “i5mut: control peptide, 90% identity with peptide i5, mutated to alanine on three key residues, no longer binds to Asf1 (ASTERKWAEAARRARGAGGVTLNGAG) [reference compound]”, in assay [1], the “binding to Asf1 (in words)” value is given as “no longer binds to Asf1; also recorded: does not bind to Asf1”. The “histones bound to or detached from GST-Asf1 beads” value in assay [4] is “the histones remain bound to Asf1”.

The values are drawn from patent publication US9526757B2, “Peptides that inhibit the interaction between ASF1 and histones, and use thereof” (COMMISSARIAT A L'ENERGIE ATOMIQUE ET AUX ENERGIES …, priority 2011, dated 2016).
